Counter-ions that a name gives are not always drawn.
How the values were obtained:
[1] = biological target: T1, Human vitronectin receptor (αv β3) (Homo sapiens, UniProt P05106+P06756); test: Vitronectin adhesion assay (solid phase receptor assay, biotinylated vitronectin competition); assay type: binding; conditions: inhibition of 50% of the maximum binding of biotinylated vitronectin; 1 nM labeled ligand, 2 hours, room temperature, highest concentration of test compound 1.0×10^-4 M; read-out: AvB3 IC50
T1 construct: Human vitronectin receptor(αv β3) was purified from human placenta; from tissue; host or cells: human placenta
Method: VITRONECTIN ADHESION ASSAY Human vitronectin receptor(αv β3) was purified from human placenta as previously described [Pytela et al., Methods in Enzymology, 144:475-489 (1987)). Human vitronectin was purified from fresh frozen plasma as previously described [Yatohgo et al., Cell Structure and Function, 13:281-292 (1988)]. Biotinylated human vitronectin was prepared by coupling NHS-biotin from Pierce Chemical Company (Rockford, Ill.) to purified vitronectin as previously described [Charo et al., J. Biol. Chem., 266(3):1415-1421 (1991)]. Assay buffer, OPD substrate tablets, and RIA grade BSA were obtained from Sigma (St. Louis, Mo.). Anti-biotin antibody was obtained from Calbiochem (La Jolla, Calif.). Linbro microtiter plates were obtained from Flow Labs (McLean, Va.). ADP reagent was obtained from Sigma (St. Louis, Mo.). Solid Phase Receptor Assays This assay was essentially the same as previously reported [Niiya et al., Blood, 70:475-483 (1987)]. The purified human vitronectin receptor (αv β3) was diluted from stock solutions to 1.0 μg/mL in Tris-buffered saline containing 1.0 mM Ca^++, Mg^++, and Mn^++, pH 7.4 (TBS^+++). The diluted receptor was immediately transferred to Linbro microtiter plates at 100 μL/well (100 ng receptor/well). The plates were sealed and incubated overnight at 4° C. to allow the receptor to bind to the wells. All remaining steps were at room temperature. The assay plates were emptied and 200 μL of 1% RIA grade BSA in TBS^+++ (TBS^+++ /BSA) were added to block exposed plastic surfaces. Following a 2 hour incubation, the assay plates were washed with TBS^+++ using a 96 well plate washer. Logarithmic serial dilution of the test compound and controls were made starting at a stock concentration of 2 mM and using 2 nM biotinylated vitronectin in TBS^+++ /BSA as the diluent. This premixing of labeled ligand with test (or control) ligand, and subsequent transfer of 50 μL aliquots to the assay plate was carried out with a CETUS Propette robot; the final concentration of the labeled ligand was 1 nM and the highest concentration of test compound was 1.0×10^-4 M. The competition occurred for two hours after which all wells were washed with a plate washer as before. Affinity purified horseradish peroxidase labeled goat antibiotin antibody was diluted 1:3000 in TBS^+++ /BSA and 125 μL were added to each well. After 30 minutes, the plates were washed and incubated with OPD/H2 O2 substrate in 100 mM/L Citrate buffer, pH 5.0. The plate was read with a microtiter plate reader at a wavelength of 450 nm and when the maximum-binding control wells reached an absorbance of about 1.0, the final A450 were recorded for analysis. The data were analyzed using a macro written for use with the EXCEL™ spreadsheet program. The mean, standard deviation, and %CV were determined for duplicate concentrations. The mean A450 values were normalized to the mean of four maximum-binding controls (no competitor added)(B-MAX). The normalized values were subjected to a four parameter curve fit algorithm [Rodbard et al., Int.

[2] = biological target: T2, Human fibrinogen receptor (αIIb β3) (Homo sapiens, UniProt P05106+P08514); test: Purified IIb/IIIa receptor assay (solid phase receptor assay, biotinylated vitronectin competition); conditions: inhibition of 50% of the maximum binding of biotinylated vitronectin; 1 nM labeled ligand, 2 hours, room temperature, highest concentration of test compound 1.0×10^-4 M
T2 construct: Human fibrinogen receptor (αIIb β3) was purified from outdated platelets; from tissue; host or cells: outdated human platelets
Description: PURIFIED IIb/IIIa RECEPTOR ASSAY Human fibrinogen receptor (αIIb β3) was purified from outdated platelets. (Pytela, R., Pierschbacher, […]., Suzuki, S., and […] acid adhesion receptors", Methods in Enzymology 144(1987):475-489.) Human vitronectin was purified from fresh frozen plasma as described in Yatohgo, T., Izumi, M., Kashiwagi, H., and Hayashi, M., "Novel purification of vitronectin from human plasma by heparin affinity chromatography," Cell Structure and Function 13(1988):281-292. Biotinylated human vitronectin was prepared by coupling NHS-biotin from Pierce Chemical Company (Rockford, Ill.) to purified vitronectin as previously described. (Charo, […]., Phillips, D. R., Hsu, M. A., Scarborough, R. M., "Inhibition of fibrinogen binding to GP IIb/IIIa by a GP IIIa peptide", J. Biol. Chem. 266(3)(1991):1415-1421.) Assay buffer, OPD substrate tablets, and RIA grade BSA were obtained from Sigma (St. Louis, Mo.). Anti-biotin antibody was obtained from Calbiochem (La Jolla, Calif.). Linbro microtiter plates were obtained from Flow Labs (McLean, Va.). ADP reagent was obtained from Sigma (St. Louis, Mo.). Solid Phase Receptor Assays This assay is essentially the same reported in […]., Bader, R., Byers-Ward, […]., Plow, E. F. and Ruggeri, Z. M., "Increased surface expression of the membrane glycoprotein IIb/IIIa complex induced by platelet activation: Relationships to the binding of fibrinogen and platelet aggregation", Blood 70(1987):475-483. The purified human fibrinogen receptor (αIIb β3) was diluted from stock solutions to 1.0 μg/mL in Tris-buffered saline containing 1.0 mM Ca^++, Mg^++, and Mn^++, pH 7.4 (TBS^+++). The diluted receptor was immediately transferred to Linbro microtiter plates at 100 μL/well (100 ng receptor/well). The plates were sealed and incubated overnight at 4° C. to allow the receptor to bind to the wells. All remaining steps were at room temperature. The assay plates were emptied and 200 μL of 1% RIA grade BSA in TBS^+++ (TBS^+++ /BSA) were added to block exposed plastic surfaces. Following a 2 hour incubation, the assay plates were washed with TBS^+++ using a 96 well plate washer. Logarithmic serial dilution of the test compound and controls were made starting at a stock concentration of 2 mM and using 2 nM biotinylated vitronectin in TBS^+++ /BSA as the diluent. This premixing of labeled ligand with test (or control) ligand, and subsequent transfer of 50 μL aliquots to the assay plate was carried out with a CETUS Propette robot; the final concentration of the labeled ligand was 1 nM and the highest concentration of test compound was 1.0×10^-4 M. The competition occurred for two hours after which all wells were washed with a plate washer as before. Affinity purified horseradish peroxidase labeled goat antibiotin antibody was diluted 1:3000 in TBS^+++ /BSA and 125 μL were added to each well. After 30 minutes, the plates were washed and incubated with […]/H2 O2 substrate in 100 mM/L citrate buffer, pH 5.0. The plate was read with a microtiter plate reader at a wavelength of 450 nm and when the maximum-binding control wells reached an absorbance of about 1.0, the final A450 were recorded for analysis. The data were analyzed using a macro written for use with the EXCELTM spreadsheet program. The mean, standard deviation, and %CV were determined for duplicate concentrations. The mean A450 values were normalized to the mean of four maximum-binding controls (no competitor added)(B-MAX). The normalized values were subjected to a four parameter curve fit algorithm, [Robard et al., Int.

| IC50 [1] [nM] | IC50 [2] [µM] | Compound |
| --- | --- | --- |
| > 100000 | 57.6 | CCOC(=O)CCc1cccc(CNC(=O)c2cccc(C#N)c2)c1 [Example 19, ethyl 3-[[[[3-(cyano)phenyl]carbonyl]amino]methyl]benzenepropanoate, diacetate salt] |
| 10 | 0.327 | N=C(N)Nc1cccc(S(=O)(=O)Nc2cccc(C(CC(=O)O)c3ccc(F)cc3)c2)c1 (stereo not drawn) [Example 79, β-[3-[[[3-[(aminoiminomethyl)amino]phenyl]sulfonyl]amino]phenyl]-4-fluorobenzenepropanoic Acid, Trifluoroacetate Salt] |
| 3090 | 10.7 | N=C(N)Nc1cccc(NC(=O)Nc2cccc(CCC(=O)O)c2)c1 [Example 51, 3-[[[[3-[(aminoiminomethyl)amino]phenyl]amino]carbonyl]amino]benzenepropanoic acid, trifluoroacetate salt] |
| 30.4 | 9.75 | O=C(O)CCc1cccc(OCC(O)c2cccc(NC3=NCCN3)c2)c1 (centres unmarked) [Example 71, 3-[2-[3-[(4,5-dihydro-1H-imidazol-2-yl)amino]phenyl]-2-hydroxyethoxy]benzenepropanoic acid, trifluoroacetate salt] |
| 499 | 3.76 | N=C(N)Nc1cccc(C(=O)Nc2cccc(C(CC(=O)O)c3ccccc3)c2)c1 (stereo not drawn) [Example 2, 3-[[[3-[(aminoiminomethyl)amino]phenyl]carbonyl]amino]-β-phenylbenzenepropanoic acid, trifluoroacetate salt] |
| 589 | 11.3 | N=C(N)Nc1cccc(/C=C/C(=O)c2cccc(OCC(=O)O)c2)c1 [Example 73, 2-[3-[3-[3-[(aminoiminomethyl)amino]phenyl]-1-oxopropenyl]phenoxy]acetic acid, monohydrochloride] |
| 2.54 | 0.803 | N=C(N)Nc1cccc(S(=O)(=O)Nc2cccc(C(CC(=O)O)c3cc(F)cc(F)c3)c2)c1 (stereo not drawn) [Example 78, β-[3-[[[3-[(aminoiminomethyl)amino]phenyl]sulfonyl]amino]phenyl]-3,5-difluorobenzenepropanoic Acid, Trifluoroacetate Salt] |
| > 100000 | > 100 | CCOC(=O)CCc1cccc(CNC(=O)c2cccc(NC(=O)NCc3ccccc3)c2)c1 [Example 30, ethyl 3-[[[[3-[[[(phenylmethyl)amino]carbonyl]amino]phenyl]carbonyl]amino]methyl]benzenepropanoate] |
| 87 | 1.77 | N=C(N)Nc1cccc(/C=C\c2cccc(C(CC(=O)O)c3ccccc3)c2)c1 (stereo not drawn) [Example 76, 3-[2Z-[3-[(aminoiminomethyl)amino]phenyl]ethenyl]-β-phenylbenzenepropanoic Acid, Bis(trifluoroacetate) Salt] |
| 1680 | 12.7 | N=C(N)Nc1cccc(C(=O)NCc2cccc(CC(=O)O)c2)c1 [Example 49, 3-[[[[3-[(aminoiminomethyl)amino]phenyl]carbonyl]amino]methyl]benzeneacetic acid, trifluoroacetate salt] |
| 86 | 2.55 | N=C(N)Nc1cccc(S(=O)(=O)Nc2cccc(C(CC(=O)O)c3c(F)c(F)c(F)c(F)c3F)c2)c1 (stereo not drawn) [Example 81, β-[3-[[[3-[(aminoiminomethyl)amino]phenyl]sulfonyl]amino]phenyl]perfluorobenzenepropanoic Acid, Trifluoroacetate Salt] |
| 199 | 26.4 | CC(CC(=O)O)c1cccc(CNC(=O)c2cccc(NC(N)=NC#N)c2)c1 (racemic) [Example 64, (±) 3[[[[3-[[amino(cyanoimino)methyl]amino]phenyl]carbonyl]amino]methyl]-β-methylbenzenepropanoic acid] |
| 82 | 15.1 | O=C(O)CC(c1cc(F)cc(F)c1)c1cccc(NS(=O)(=O)c2cccc(NC=NCc3ccccc3)c2)c1 (stereo not drawn) [Example 84, 3,5-difluoro-β-[3-[[[3-[[[(phenylmethyl)imino]methyl]amino]phenyl]sulfonyl]amino]phenyl]benzenepropanoic Acid, Trifluoroacetate Salt] |

— patent US5773646A, “Meta-substituted phenylene derivatives” (G. D. Searle & Co., priority 1997, dated 1998)
